“And” between values parts separate entries of the source, which are not always exact repeats. Identical values can stand only once. Marks after values point to notes of the source that are not given here.
What was measured:
Assay in all cases: cells
Prostate DU145 cells = tested on: Prostate DU145 cells
Procedure: (§1) The percentage of growth inhibition was calculated as follows: […]

NCI-H1975 NSCLC cells = tested on: NCI-H1975 NSCLC cells
Procedure: as §1

Prostate LNCaP cells = tested on: Prostate LNCaP cells
Procedure: as §1

Ovary TOV21G cells = conditions: for Fold increase in efficacy: drug alone ÷ drug in 4SP65-DDP combination
Procedure: as §1

Prostate PC3 cells = tested on: Prostate PC3 cells
Procedure: as §1

Ovary SKOV3 cells = tested on: Ovary SKOV3 cells
Procedure: as §1

[1] = 48-h treatment, amifostine ND = not definable up to 500 µM
[2] = drug alone, 48 h, 4SP65/cisplatin study

4-star-PEG-S-S-WR1065 [4SP65] showed a CC50 (Prostate DU145 cells) of 11.1 ± 0.1 µM, a GI50 (Prostate DU145 cells; [1]) of 7.5 ± 1.2 µM and an IC50 (Prostate DU145 cells; [1]) of 8.5 ± 1 µM. The LC99 (Prostate DU145 cells; [1]) was 12.0 ± 0.1 µM, the TGI (Prostate DU145 cells; [1]) was 9.5 ± 0.7 µM and 9.5 µM and the “Dose reduction value 1LP65 ÷ 4SP65” value (Prostate DU145 cells; at GI50) was 3.5 fold. The “Dose reduction value AMF ÷ 4SP65” value (Prostate DU145 cells; at GI50) was 17 fold, the “Dose reduction value 1LP65 ÷ 4SP65” value (Prostate DU145 cells; at IC50) was 3.5 fold and the “Dose reduction value AMF ÷ 4SP65” value (Prostate DU145 cells; at IC50) was 38 fold. For the same substance, the “Dose reduction value 1LP65 ÷ 4SP65” value (Prostate DU145 cells; at LC50) was 6.4 fold, the “Dose reduction value 1LP65 ÷ 4SP65” value (Prostate DU145 cells; at LC99) was 7.0 fold and the “Dose reduction value 1LP65 ÷ 4SP65” value (Prostate DU145 cells; at TGI) was 5.6 fold. The CC50 (NCI-H1975 NSCLC cells) was 7.6 ± 1.3 µM, the GI50 (NCI-H1975 NSCLC cells; [1]) was 3.1 ± 0.6 µM and the IC50 (NCI-H1975 NSCLC cells; [1]) was 4.2 ± 1 µM. For the same substance, the LC99 (NCI-H1975 NSCLC cells; [1]) was 9.3 ± 1.1 µM, the TGI (NCI-H1975 NSCLC cells; [1]) was 5.2 ± 0.9 µM and the “Dose reduction value 1LP65 ÷ 4SP65” value (NCI-H1975 NSCLC cells; at GI50) was 13 fold. The “Dose reduction value AMF ÷ 4SP65” value (NCI-H1975 NSCLC cells; at GI50) was 42 fold, the “Dose reduction value 1LP65 ÷ 4SP65” value (NCI-H1975 NSCLC cells; at IC50) was 13 fold and the “Dose reduction value 1LP65 ÷ 4SP65” value (NCI-H1975 NSCLC cells; at LC50) was 8.3 fold. For the same substance, the “Dose reduction value 1LP65 ÷ 4SP65” value (NCI-H1975 NSCLC cells; at LC99) was 9.3 fold, the “Dose reduction value 1LP65 ÷ 4SP65” value (NCI-H1975 NSCLC cells; at TGI) was 10 fold and the CC50 (Prostate LNCaP cells) was 7.3 ± 1.8 µM. For the same substance, the GI50 (Prostate LNCaP cells; [1]) was 2.5 ± 1 µM, the IC50 (Prostate LNCaP cells; [1]) was 3.1 ± 1.5 µM and the LC99 (Prostate LNCaP cells; [1]) was 10.1 ± 1.0 µM. For the same substance, the TGI (Prostate LNCaP cells; [1]) was 4.7 ± 1.5 µM, the “Dose reduction value 1LP65 ÷ 4SP65” value (Prostate LNCaP cells; at GI50) was 11 fold and the “Dose reduction value AMF ÷ 4SP65” value (Prostate LNCaP cells; at GI50) was 60 fold. For the same substance, the “Dose reduction value 1LP65 ÷ 4SP65” value (Prostate LNCaP cells; at IC50) was 14 fold, the “Dose reduction value AMF ÷ 4SP65” value (Prostate LNCaP cells; at IC50) was 122 fold and the “Dose reduction value 1LP65 ÷ 4SP65” value (Prostate LNCaP cells; at LC50) was 12 fold. For the same substance, the “Dose reduction value 1LP65 ÷ 4SP65” value (Prostate LNCaP cells; at LC99) was 11 fold, the “Dose reduction value 1LP65 ÷ 4SP65” value (Prostate LNCaP cells; at TGI) was 11 fold and the CC50 (Ovary TOV21G cells) was 2.7 µM. For the same substance, the “gains in total growth inhibition and cytolytic effects, range” value (Ovary TOV21G cells; 4SP65-cisplatin combined) was 2.4- to 3.2 fold, the GI50 (Ovary TOV21G cells; [1]) was 0.9 ± 0.4 µM and the IC50 (Ovary TOV21G cells; [1]) was 1.2 ± 0.3 µM. The TGI (Ovary TOV21G cells; [1]) was 2.0 ± 0.4 µM, the “LC99, drug in combination (CMB)” value (Ovary TOV21G cells; amount of each drug in combination, ratio 14% 4SP65:86% DDP, 48 h) was 0.95 µM and the “Dose reduction value 1LP65 ÷ 4SP65” value (Ovary TOV21G cells; at GI50) was 24 fold. For the same substance, the “Dose reduction value AMF ÷ 4SP65” value (Ovary TOV21G cells; at GI50) was 52 fold, the “Dose reduction value 1LP65 ÷ 4SP65” value (Ovary TOV21G cells; at IC50) was 22 fold and the “Dose reduction value AMF ÷ 4SP65” value (Ovary TOV21G cells; at IC50) was 41 fold. The “Dose reduction value 1LP65 ÷ 4SP65” value (Ovary TOV21G cells; at LC50) was 19 fold, the “Dose reduction value 1LP65 ÷ 4SP65” value (Ovary TOV21G cells; at LC99) was 31 fold and the “Dose reduction value 1LP65 ÷ 4SP65” value (Ovary TOV21G cells; at TGI) was 27 fold. The “Fold increase in efficacy” value (Ovary TOV21G cells; at GI50) was 2.3 (NS) fold, the “Fold increase in efficacy” value (Ovary TOV21G cells; at IC50) was 1.9 (NS) fold and the “Fold increase in efficacy” value (Ovary TOV21G cells; at LC50) was 3.0*** fold. For the same substance, the “Fold increase in efficacy” value (Ovary TOV21G cells; at LC99) was 3.2*** fold, the “Fold increase in efficacy” value (Ovary TOV21G cells; at TGI) was 2.4* fold and the GI50 (Ovary TOV21G cells; [2]) was 0.93 ± 0.37 µM. The IC50 (Ovary TOV21G cells; [2]) was 1.2 ± 0.3 µM, the LC99 (Ovary TOV21G cells; [2]) was 3.0 µM and 3.0 ± 0.2 µM and the TGI (Ovary TOV21G cells; [2]) was 2.0 ± 0.4 µM. For the same substance, the CC50 (Prostate PC3 cells) was 4.5 ± 0.6 µM, the GI50 (Prostate PC3 cells; [1]) was 0.7 ± 0.2 µM and the IC50 (Prostate PC3 cells; [1]) was 2 ± 0.3 µM. For the same substance, the LC99 (Prostate PC3 cells; [1]) was 5.8 ± 0.8 µM, the TGI (Prostate PC3 cells; [1]) was 2.1 ± 0.5 µM and 2.1 µM and the “Dose reduction value 1LP65 ÷ 4SP65” value (Prostate PC3 cells; at GI50) was 25 fold. The “Dose reduction value AMF ÷ 4SP65” value (Prostate PC3 cells; at GI50) was 58 fold, the “Dose reduction value 1LP65 ÷ 4SP65” value (Prostate PC3 cells; at IC50) was 19 fold and the “Dose reduction value AMF ÷ 4SP65” value (Prostate PC3 cells; at IC50) was 52 fold. The “Dose reduction value 1LP65 ÷ 4SP65” value (Prostate PC3 cells; at LC50) was 13 fold, the “Dose reduction value 1LP65 ÷ 4SP65” value (Prostate PC3 cells; at LC99) was 15 fold and the “Dose reduction value 1LP65 ÷ 4SP65” value (Prostate PC3 cells; at TGI) was 19 fold. For the same substance, the “Dose reduction value AMF ÷ 4SP65” value (Prostate PC3 cells; at TGI) was 143 fold, the GI50 (Ovary SKOV3 cells; [1]) was 4 ± 0.8 µM and the IC50 (Ovary SKOV3 cells; [1]) was 5.1 ± 0.9 µM. For the same substance, the LC99 (Ovary SKOV3 cells; [1]) was 10.5 ± 1.5 µM, the TGI (Ovary SKOV3 cells; [1]) was 6.8 ± 0.9 µM and 6.8 µM and the “fold more effective as a cytostatic agent than PRIMA-1 or APR-246” value (Ovary SKOV3 cells; TP53-null SKOV3 cells) was 3.3- to 16 fold. For the same substance, the “Dose reduction value 1LP65 ÷ 4SP65” value (Ovary SKOV3 cells; at GI50) was 10 fold, the “Dose reduction value AMF ÷ 4SP65” value (Ovary SKOV3 cells; at GI50) was 20 fold and the “Dose reduction value 1LP65 ÷ 4SP65” value (Ovary SKOV3 cells; at IC50) was 8.9 fold. The “Dose reduction value AMF ÷ 4SP65” value (Ovary SKOV3 cells; at IC50) was 58 fold.

Reference: paper PMC10419174, “WR1065 conjugated to thiol-PEG polymers as novel anticancer prodrugs: broad spectrum efficacy, synergism, and drug resistance reversal” (Frontiers in Oncology, 2023)
